Data taken from paper PMC2676060 (European journal of medicinal chemistry, 2008).
pIC50: −log10 of the molar value.

Experiments:
[1] = target: recombinant HIV-1 RT enzyme (p66/51 dimer) (Human immunodeficiency virus type 1 group M subtype B, UniProt P03366); test: RT inhibition assay, poly; format: biochemical; details: for HIV-1 RT inhibition (in words): poly(rC)·oligo(dG) as template primer
[2] = cited from earlier work

## COC(=O)CCC/C=C(\c1cc(F)cc(C(F)(F)F)c1)c1cc(C)c2onc(OC)c2c1 [Compound 1]
[1]
  pIC50: 6.05

## COC(=O)CCC/C=C(/c1cc(C)c2onc(OC)c2c1)c1cc(C)c2oc(=O)n(C)c2c1 [Compound 2]
[2]
  stability in rat blood plasma (in words): unstable

## COC(=O)CCC/C=C(\c1cc(C)c(OC)c(C(=O)OC)c1)c1cc(C)c2onc(OC)c2c1 [Compound 3, (Z)-2-Methoxy-5-[5-methoxycarbonyl-1-(3-methoxy-7-methylbenzo[d]isoxazol-5-yl)-pent-1-enyl]-3-methylbenzoic acid methyl ester]
[1]
  pIC50: 6.04

## COC(=O)c1cc(/C(=C/CCN2CCOC2=O)c2cc(C)c3onc(OC)c3c2)cc(C)c1OC [Compound 5, (E)-2-Methoxy-5-[1-(3-methoxy-7-methylbenzo[d]isoxazol-5-yl)-4-(2-oxoxazolidin-3-yl)-but-1-enyl]-3-methylbenzoic acid methyl ester]
[1]
  HIV-1 RT inhibition (in words): much less active

## COC(=O)c1cc(/C(=C/CCN2CCOC2=O)c2cc(C)c3onc(OC)c3c2)cc(Cl)c1OC [Compound 6, (E)-3-Chloro-2-methoxy-5-[1-(3-methoxy-7-methyl-benzo[d]isoxazol-5-yl)-4-(2-oxoxazolidin-3-yl)-but-1-enyl]-benzoic acid methyl ester]
[1]
  HIV-1 RT inhibition (in words): much less active

## COc1noc2c(C)cc(C(=CCCN3CCOC3=O)c3cc(C)c4onc(OC)c4c3)cc12 [Compound 7, 3-[4,4-Bis-(3-methoxy-7-methyl-benzo[d]isoxazol-5-yl)-but-3-enyl]-oxazolidin-2-one]
[1]
  HIV-1 RT inhibition (in words): active

## COc1noc2c(C)cc(/C(=C\CCN3CCOC3=O)c3cc(C)c4oc(=O)n(C)c4c3)cc12 [Compound 8, (E)-5-[1-(3-Methoxy-7-methylbenzo[d]isoxazol-5-yl)-4-(2-oxoxazolidin-3-yl)-but-1-enyl]-3,7-dimethyl-3H-benzoxazol-2-one]
[1]
  HIV-1 RT inhibition (in words): much less active

## COc1noc2c(C)cc(/C(=C\CCN3CCOC3=O)c3cccc(C#N)c3)cc12 [Compound 9, (Z)-3-[1-(3-Methoxy-7-methylbenzo[d]isoxazol-5-yl)-4-(2-oxoxazolidin-3-yl)-but-1-enyl]-benzonitrile]
[1]
  HIV-1 RT inhibition (in words): much less active
